Laboratory results reported in BindingDB's records for doi:10.1016/0960-894X(96)00456-8 (1996).

Assay: Compound was evaluated for inhibitory activity against herpes simplex type 2 protease (HSV-2 pr).

IC50 [µM]	Compound
0.7	O=C1OC(c2ccccc2)=N[C@@]12C[C@@H]2c1ccccc1 [(1R,3R)-1,5-Diphenyl-6-oxa-4-aza-spiro[2.4]hept-4-en-7-one]
1.2	CC(=O)Oc1ccc([C@H]2C[C@@]23N=C(c2ccccc2)OC3=O)cc1 [Acetic acid 4-((1R,3R)-7-oxo-5-phenyl-6-oxa-4-aza-spiro[2.4]hept-4-en-1-yl)-phenyl ester]
